Results reported in US9187477B2, “Azabenzimidazole derivatives” (Boehringer Ingelheim International GmbH, priority 2013, dated 2015).

How the values were obtained:
[1] = molecular target: AMPK complex 1 (containing alpha1beta1gamma1) (Homo sapiens (Human), UniProt Q13131+Q9Y478); assay: in vitro AMPK activation assay (ADP-Glo Kinase Assay); assay type: biochemical; conditions: AMPK alpha1beta1gamma1, ATP 30 μM, peptide 1 μM, 60 min, room temperature
Excerpt: Activated AMPK complex 1 (containing alpha1beta1gamma1) was obtained from baculovirus expression system. The gene encoding AMPK alpha1 was cloned into the pACG2T vector (BD Biosciences) to obtain a N-terminal Glutathion S transferase (GST)-fusion protein. The genes encoding AMPK beta1 and gamma1 were cloned into the p2Bac dual multiple cloning site vector (Invitrogen) with beta1 under the control of the p10 promoter and gamma1 under the control of the PH promoter. The transfer vectors containing AMPK were co-transfected individually with AcPNV BacMagic-3 DNA (EMD Millipore) in Sf9 cells and the recombinant baculoviruses were harvested after 5 days, followed by 3 rounds of amplification of the virus stock in Sf9 cells. AMPK (alpha1beta1gamma1) was expressed in High Five 5 cells by co-infection of recombinant alpha1 virus and recombinant beta1/gamma1 virus for 72 h at 27° C. Cells were harvested by centrifugation and lysed by 3 freeze/thaw cycles in PBS with 10% glycerol and protease inhibitor cocktail (Roche). After centrifugation AMPK a1b1g1 in the supernatant was captured by immobilized glutathione (GE Healthcare), impurities were washed away with PBS and AMPK alpha1beta1gamma1 was eluted with PBS containing 20 mM reduced gluthathione. The protein buffer was then exchanged to PBS with 10% glycerol and protein concentration was determined by UV absorbance.
The white 384-well Optiplates (cat. no. 6007299) were purchased from PerkinElmer. The V9101 ADP-Glo Kinase Assay and ultra pure ATP (V915A) was purchased from Promega. The substrate for AMPK (NH2-HMRSAMSGLHLVKRR_CONH2) was purchased from Upstate (12-355).
Compounds were tested in either serial dilutions or single dose concentrations. The serial compound dilutions were prepared in 100% DMSO automatically. The final DMSO concentration in the assay was 0.1%.
The Compound Stock Solutions were 10 mM in 100% DMSO. The compounds were solubilised at room temperature.
In the 384-well plates 1.25 ul of test compound in assay buffer was mixed with 1.25 ul of AMPK and 1.25 μl of the peptide (final concentration of 1 μM) and 1.25 μl of ATP (final concentration of 30 μM), both dissolved in assay buffer. This step was followed by an incubation time of 60 min. Then 5 μl of ADP Glo Reagent was added. This was followed by 40 min of incubation. Then 10 μl of Kinase Detection Reagent was admixed. The plates were sealed and after an incubation period of 30 min, the luminescence signal was measured in an Envision reader. All incubation steps were accomplished at room temperature.
Each assay microtiter plate contained wells with vehicle controls instead of compound (0.1% DMSO in water) as reference for the low signal (100% CTL, low signal), and wells with serial dilutions of AMP (final 30 μM) as reference for high signals.
The luminescence signal generated was proportional to the ADP concentration produced and was correlated with AMPK activity. The analysis of the data was performed by the calculation of the percentage of ATP consumption of AMPK in the presence of the test compound compared to the consumption of ATP in the presence of AMPK without compound. (RLU(sample)/RLU(low control))*100[RLU=relative luminescence units]
An activator of the AMPK enzyme gave values above 100% CTL.
EC50 values based on dose response curves are calculated with the XIFIT software using the 4 Parameter Logistic Model or Sigmoidal Dose-Response Model.

[2] = Metabolic stability: metabolic degradation with pooled human liver microsomes; assay type: in vitro ADME; conditions: for c (control) (metabolic stability), remaining test compound after NADPH independent incubation: incubation without NADPH, after 2 hours, human liver microsomes; for t1/2 INVITRO: pooled human liver microsomes 1 mg/ml, 37° C., test compound 1 μM, NADPH 1 mM
Protocol: The metabolic degradation of the test compound is assayed at 37° C. with pooled human liver microsomes. The final incubation volume of 100 μl per time point contains TRIS buffer pH 7.6 at room temperature (0.1 M), magnesium chloride (5 mM), microsomal protein (1 mg/ml) and the test compound at a final concentration of 1 μM.
Following a short preincubation period at 37° C., the reactions were initiated by addition of beta-nicotinamide adenine dinucleotide phosphate, reduced form (NADPH, 1 mM) and terminated by transferring an aliquot into solvent after different time points.
Additionally, the NADPH-independent degradation was monitored in incubations without NADPH, terminated at 2 hour time point. The [%] remaining test compound after NADPH independent incubation is reflected by the parameter c (control) (metabolic stability). A c (control) (metabolic stability) value around 100% excludes cofactor independent activities (e.g. from esterases).
The quenched incubations are pelleted by centrifugation (10000 g, 5 min).
An aliquot of the supernatant is assayed by LC-MS/MS for the amount of parent compound. The half-life (t1/2 INVITRO) is determined by the slope of the semilogarithmic plot of the concentration-time profile.

Sequence of AMPK complex 1 (containing alpha1beta1gamma1) (Q13131 whole entry, the tested form may be a part): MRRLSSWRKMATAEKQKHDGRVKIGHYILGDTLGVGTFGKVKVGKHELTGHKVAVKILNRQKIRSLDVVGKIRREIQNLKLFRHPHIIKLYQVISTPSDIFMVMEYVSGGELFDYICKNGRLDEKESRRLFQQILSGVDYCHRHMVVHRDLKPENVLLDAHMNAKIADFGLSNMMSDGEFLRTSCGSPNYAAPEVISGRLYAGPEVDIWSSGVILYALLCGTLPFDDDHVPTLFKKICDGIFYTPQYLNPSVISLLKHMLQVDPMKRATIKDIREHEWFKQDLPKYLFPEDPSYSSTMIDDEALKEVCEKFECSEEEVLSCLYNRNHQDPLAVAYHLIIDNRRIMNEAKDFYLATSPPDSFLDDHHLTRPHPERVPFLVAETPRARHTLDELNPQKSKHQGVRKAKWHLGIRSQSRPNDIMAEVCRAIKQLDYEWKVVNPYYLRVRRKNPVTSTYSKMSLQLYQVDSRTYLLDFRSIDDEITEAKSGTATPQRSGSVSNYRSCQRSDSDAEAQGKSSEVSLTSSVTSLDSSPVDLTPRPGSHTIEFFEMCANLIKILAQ
Sequence of AMPK complex 1 (containing alpha1beta1gamma1) (Q9Y478 whole entry, the tested form may be a part): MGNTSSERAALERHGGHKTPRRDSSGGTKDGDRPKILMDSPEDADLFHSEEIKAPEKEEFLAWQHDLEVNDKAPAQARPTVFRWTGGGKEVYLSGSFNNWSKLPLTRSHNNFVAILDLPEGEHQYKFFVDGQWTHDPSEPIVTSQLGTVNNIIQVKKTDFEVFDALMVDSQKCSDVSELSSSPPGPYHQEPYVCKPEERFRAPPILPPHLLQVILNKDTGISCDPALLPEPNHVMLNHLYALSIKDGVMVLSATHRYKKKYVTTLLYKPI
Sequence of AMPK complex 1 (containing alpha1beta1gamma1) (P54619 whole entry partner, the tested form may be a part): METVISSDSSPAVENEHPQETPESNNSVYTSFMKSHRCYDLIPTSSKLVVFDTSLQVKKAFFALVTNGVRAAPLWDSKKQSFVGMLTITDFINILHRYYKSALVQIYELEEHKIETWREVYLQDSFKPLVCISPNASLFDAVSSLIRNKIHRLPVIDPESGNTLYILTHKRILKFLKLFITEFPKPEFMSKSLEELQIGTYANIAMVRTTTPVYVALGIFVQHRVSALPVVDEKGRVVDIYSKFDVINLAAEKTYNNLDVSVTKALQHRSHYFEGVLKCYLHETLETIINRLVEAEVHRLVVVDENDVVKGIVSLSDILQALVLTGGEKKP

## CC(C)OC(=O)N[C@H]1CC[C@@H](c2ccc(-c3nc4[nH]c(O[C@@H]5CO[C@H]6[C@@H]5OC[C@H]6O)nc4cc3Cl)cc2)CC1 [Example 4, Isopropyl (cis)-4-(4-(6-chloro-2-((3R,3aR,6R,6aR)-6-hydroxyhexahydrofuro[3,2-b]furan-3-yloxy)-3H-imidazo[4,5-b]pyridin-5-yl)phenyl)cyclohexylcarbamate]
[1]
  EC50: 12 nM
[2]
  c (control) (metabolic stability), remaining test compound after NADPH independent incubation: 103%
  t1/2 INVITRO: >2.17 h

## CC(C)NC(=O)O[C@H]1CC[C@@H](c2ccc(-c3nc4[nH]c(O[C@@H]5CO[C@H]6[C@@H]5OC[C@H]6O)nc4cc3Cl)cc2)CC1 [Example 11, (cis)-4-(4-(6-Chloro-2-((3R,3aR,6R,6aR)-6-hydroxyhexahydrofuro[3,2-b]furan-3-yloxy)-3H-imidazo[4,5-b]pyridin-5-yl)phenyl)cyclohexyl isopropylcarbamate]
[1]
  EC50: 35 nM
[2]
  c (control) (metabolic stability), remaining test compound after NADPH independent incubation: 106%
  t1/2 INVITRO: 1.83 h

## CC(C)NC(=O)OC1CCN(c2ccc(-c3nc4[nH]c(O[C@@H]5CO[C@H]6[C@@H]5OC[C@H]6O)nc4cc3Cl)cc2)CC1 [Example 14, 1-(4-(6-Chloro-2-((3R,3aR,6R,6aR)-6-hydroxyhexahydrofuro[3,2-b]furan-3-yloxy)-3H-imidazo[4,5-b]pyridin-5-yl)phenyl)piperidin-4-yl isopropylcarbamate]
[1]
  EC50: 578 nM

## CC(C)OC(=O)NC1CCN(c2ccc(-c3nc4[nH]c(O[C@@H]5CO[C@H]6[C@@H]5OC[C@H]6O)nc4cc3Cl)cc2)CC1 [Example 16, Isopropyl 1-(4-(6-chloro-2-((3R,3aR,6R,6aR)-6-hydroxyhexahydrofuro[3,2-b]furan-3-yloxy)-3H-imidazo[4,5-b]pyridin-5-yl)phenyl)piperidin-4-ylcarbamate]
[1]
  EC50: 290 nM

## CCNC(=O)O[C@H]1CC[C@H](c2ccc(-c3nc4[nH]c(O[C@@H]5CO[C@H]6[C@@H]5OC[C@H]6O)nc4cc3Cl)cc2)CC1 [Example 7, (trans)-4-(4-(6-Chloro-2-((3R,3aR,6R,6aR)-6-hydroxyhexahydrofuro[3,2-b]furan-3-yloxy)-3H-imidazo[4,5-b]pyridin-5-yl)phenyl)cyclohexyl ethylcarbamate]
[1]
  EC50: 468 nM

## O=C(O[C@H]1CC[C@H](c2ccc(-c3nc4[nH]c(O[C@@H]5CO[C@H]6[C@@H]5OC[C@H]6O)nc4cc3Cl)cc2)CC1)N1CCOCC1 [Example 6, (trans)-4-(4-(6-Chloro-2-((3R,3aR,6R,6aR)-6-hydroxyhexahydrofuro[3,2-b]furan-3-yloxy)-3H-imidazo[4,5-b]pyridin-5-yl)phenyl)cyclohexyl morpholine-4-carboxylate]
[1]
  EC50: 6 nM
[2]
  c (control) (metabolic stability), remaining test compound after NADPH independent incubation: 98%
  t1/2 INVITRO: >2.17 h

## O=C(O[C@H]1CC[C@@H](c2ccc(-c3nc4[nH]c(O[C@@H]5CO[C@H]6[C@@H]5OC[C@H]6O)nc4cc3Cl)cc2)CC1)N1CCOCC1 [Example 12, (cis)-4-(4-(6-Chloro-2-((3R,3aR,6R,6aR)-6-hydroxyhexahydrofuro[3,2-b]furan-3-yloxy)-3H-imidazo[4,5-b]pyridin-5-yl)phenyl)cyclohexyl morpholine-4-carboxylate]
[1]
  EC50: 1310 nM

## O=C(OC1CCN(c2ccc(-c3nc4[nH]c(O[C@@H]5CO[C@H]6[C@@H]5OC[C@H]6O)nc4cc3Cl)cc2)CC1)N1CCOCC1 [Example 15, 1-(4-(6-Chloro-2-((3R,3aR,6R,6aR)-6-hydroxyhexahydrofuro[3,2-b]furan-3-yloxy)-3H-imidazo[4,5-b]pyridin-5-yl)phenyl)piperidin-4-yl morpholine-4-carboxylate]
[1]
  EC50: 133 nM

## CCNC(=O)O[C@H]1CC[C@@H](c2ccc(-c3nc4[nH]c(O[C@@H]5CO[C@H]6[C@@H]5OC[C@H]6O)nc4cc3Cl)cc2)CC1 [Example 10, (cis)-4-(4-(6-Chloro-2-((3R,3aR,6R,6aR)-6-hydroxyhexahydrofuro[3,2-b]furan-3-yloxy)-3H-imidazo[4,5-b]pyridin-5-yl)phenyl)cyclohexyl ethylcarbamate]
[1]
  EC50: 26 nM
[2]
  c (control) (metabolic stability), remaining test compound after NADPH independent incubation: 105%
  t1/2 INVITRO: >2.17 h

## O=C(O[C@H]1CC[C@@H](c2ccc(-c3nc4[nH]c(O[C@@H]5CO[C@H]6[C@@H]5OC[C@H]6O)nc4cc3Cl)cc2)CC1)N1CCCC1 [Example 13, (cis)-4-(4-(6-Chloro-2-((3R,3aR,6R,6aR)-6-hydroxyhexahydrofuro[3,2-b]furan-3-yloxy)-3H-imidazo[4,5-b]pyridin-5-yl)phenyl)cyclohexyl pyrrolidine-1-carboxylate]
[1]
  EC50: 2040 nM

## CN(C)C(=O)OC1CCN(c2ccc(-c3nc4[nH]c(O[C@@H]5CO[C@H]6[C@@H]5OC[C@H]6O)nc4cc3Cl)cc2)CC1 [Example 2, 1-(4-(6-Chloro-2-((3R,3aR,6R,6aR)-6-hydroxyhexahydrofuro[3,2-b]furan-3-yloxy)-3H-imidazo[4,5-b]pyridin-5-yl)phenyl)piperidin-4-yl dimethylcarbamate]
[1]
  EC50: 32 nM
[2]
  c (control) (metabolic stability), remaining test compound after NADPH independent incubation: 109%
  t1/2 INVITRO: 1.85 h

## CC(C)NC(=O)O[C@H]1CC[C@H](c2ccc(-c3nc4[nH]c(O[C@@H]5CO[C@H]6[C@@H]5OC[C@H]6O)nc4cc3Cl)cc2)CC1 [Example 8, (trans)-4-(4-(6-Chloro-2-((3R,3aR,6R,6aR)-6-hydroxyhexahydrofuro[3,2-b]furan-3-yloxy)-3H-imidazo[4,5-b]pyridin-5-yl)phenyl)cyclohexyl isopropylcarbamate]
[1]
  EC50: 339 nM
[2]
  c (control) (metabolic stability), remaining test compound after NADPH independent incubation: 102%
  t1/2 INVITRO: >2.17 h

## CCOC(=O)NC1CCN(c2ccc(-c3nc4[nH]c(O[C@@H]5CO[C@H]6[C@@H]5OC[C@H]6O)nc4cc3Cl)cc2)CC1 [Example 1, Ethyl 1-(4-(6-chloro-2-((3R,3aR,6R,6aR)-6-hydroxyhexahydrofuro[3,2-b]furan-3-yloxy)-3H-imidazo[4,5-b]pyridin-5-yl)phenyl)piperidin-4-ylcarbamate]
[1]
  EC50: 1.2 nM
[2]
  c (control) (metabolic stability), remaining test compound after NADPH independent incubation: 100%
  t1/2 INVITRO: >2.17 h

## O=C(N[C@H]1CC[C@@H](c2ccc(-c3nc4[nH]c(O[C@@H]5CO[C@H]6[C@@H]5OC[C@H]6O)nc4cc3Cl)cc2)CC1)OC1CCOCC1 [Example 5, Tetrahydro-2H-pyran-4-yl (cis)-4-(4-(6-chloro-2-((3R,3aR,6R,6aR)-6-hydroxyhexahydrofuro[3,2-b]furan-3-yloxy)-3H-imidazo[4,5-b]pyridin-5-yl)phenyl)cyclohexylcarbamate]
[1]
  EC50: 119 nM
[2]
  c (control) (metabolic stability), remaining test compound after NADPH independent incubation: 106%
  t1/2 INVITRO: 1.13 h
